Test results: ChEMBL document CHEMBL3885861, “Open TG-GATES”

Organism: Rattus norvegicus
Test: Open TG-GATES - Regimen: Single
Format: toxicity, organism-based, Sprague-Dawley
Design: regimen Single, gender Male, age 6 weeks
Conditions: in vivo, po, route gavage; for gamma-GTP / ALP / ALT / AST / BUN / CRE / DBIL / GLC / K / LDH / Na / PL / RALB / TBIL / TC / TG / TP: tissue Plasma; for APTT / Bas / Eos / Fbg / Hb / Ht / Lym / MCHC / MCV / Mono / PT / Plat / RBC / Ret / WBC: tissue Blood; for KIDNEY_L / KIDNEY_R / KIDNEY_TOTAL: tissue Kidney; for LIVER: tissue Liver
[1] = 1200 mg/kg, 3 h, dose level Middle
[2] = 1200 mg/kg, 6 h, dose level Middle
[3] = 1200 mg/kg, 9 h, dose level Middle
[4] = 1200 mg/kg, 24 h, dose level Middle
[5] = 2000 mg/kg, 3 h, dose level High
[6] = 2000 mg/kg, 6 h, dose level High
[7] = 2000 mg/kg, 9 h, dose level High
[8] = 2000 mg/kg, 24 h, dose level High

O=C1NC(=O)C(c2ccccc2)(c2ccccc2)N1 [PHENYTOIN]
gamma-GTP (600 mg/kg, 24 h, dose level Low): 1 IU/L
TERMINAL_BW [1]: 211.8 g
APTT [1]: 16.7 s
Bas [1]: 0.2%
Eos [1]: 1%
Fbg [1]: 284.4 mg/dL
Hb [1]: 13 g/dL
Ht [1]: 38.7%
Lym [1]: 75.2%
MCHC [1]: 33.6%
MCV [1]: 62.4 fL
Mono [1]: 3.4%
PT [1]: 13.8 s
Plat [1]: 122.5 x10_4/uL
RBC [1]: 621.4 x10_4/ul
Ret [1]: 8.4%
KIDNEY_L [1]: 0.9 g
KIDNEY_R [1]: 0.9 g
KIDNEY_TOTAL [1]: 1.8 g
LIVER [1]: 9.3 g
ALP [1]: 1502.4 IU/L
ALT [1]: 35.2 IU/L
AST [1]: 70.6 IU/L
BUN [1]: 10.2 mg/dL
CRE [1]: 0.2 mg/dL
DBIL [1]: 0.016 mg/dL
GLC [1]: 191.4 mg/dL
K [1]: 4 meq/L
LDH [1]: 98.2 IU/L
Na [1]: 142.2 meq/L
PL [1]: 146.8 mg/dL
RALB [1]: 2.5 g/dL
TBIL [1]: 0.052 mg/dL
TC [1]: 75.6 mg/dL
TG [1]: 74 mg/dL
TP [1]: 5.4 g/dL
gamma-GTP [1]: 1.2 IU/L
TERMINAL_BW [2]: 207.5 g
APTT [2]: 18 s
Bas [2]: 0.4%
Eos [2]: 1%
Fbg [2]: 279.4 mg/dL
Hb [2]: 13 g/dL
Ht [2]: 38.7%
Lym [2]: 73.2%
MCHC [2]: 33.7%
MCV [2]: 61.9 fL
Mono [2]: 3%
PT [2]: 14.5 s
RBC [2]: 625.6 x10_4/ul
Ret [2]: 8.2%
WBC [2]: 94.4 x10_2/uL
KIDNEY_L [2]: 0.9 g
KIDNEY_R [2]: 0.9 g
KIDNEY_TOTAL [2]: 1.9 g
LIVER [2]: 8.7 g
ALP [2]: 1256.2 IU/L
ALT [2]: 35.8 IU/L
AST [2]: 74.8 IU/L
BUN [2]: 7.8 mg/dL
CRE [2]: 0.2 mg/dL
DBIL [2]: 0.016 mg/dL
GLC [2]: 187 mg/dL
K [2]: 3.7 meq/L
LDH [2]: 77 IU/L
Na [2]: 143.4 meq/L
PL [2]: 141.4 mg/dL
RALB [2]: 2.5 g/dL
TBIL [2]: 0.058 mg/dL
TC [2]: 76.8 mg/dL
TG [2]: 30.6 mg/dL
TP [2]: 5.4 g/dL
gamma-GTP [2]: 1.2 IU/L
TERMINAL_BW [3]: 206.4 g
APTT [3]: 15.4 s
Bas [3]: 0.4%
Eos [3]: 1%
Fbg [3]: 297 mg/dL
Hb [3]: 13.1 g/dL
Ht [3]: 38.9%
Lym [3]: 78.6%
MCHC [3]: 33.6%
MCV [3]: 62.8 fL
Mono [3]: 2%
PT [3]: 14.1 s
Plat [3]: 112.1 x10_4/uL
RBC [3]: 619.2 x10_4/ul
Ret [3]: 7.6%
WBC [3]: 69.7 x10_2/uL
KIDNEY_L [3]: 0.9 g
KIDNEY_R [3]: 0.9 g
KIDNEY_TOTAL [3]: 1.8 g
LIVER [3]: 8 g
ALP [3]: 1378 IU/L
ALT [3]: 27.2 IU/L
AST [3]: 71 IU/L
BUN [3]: 7.4 mg/dL
CRE [3]: 0.2 mg/dL
DBIL [3]: 0.016 mg/dL
GLC [3]: 194 mg/dL
K [3]: 4.1 meq/L
LDH [3]: 70.8 IU/L
Na [3]: 142.2 meq/L
PL [3]: 148.8 mg/dL
RALB [3]: 2.6 g/dL
TBIL [3]: 0.058 mg/dL
TC [3]: 80 mg/dL
TG [3]: 29.8 mg/dL
TP [3]: 5.6 g/dL
gamma-GTP [3]: 1 IU/L
TERMINAL_BW [4]: 211.5 g
APTT [4]: 16.7 s
Bas [4]: 0.2%
Eos [4]: 1.2%
Fbg [4]: 278.6 mg/dL
Hb [4]: 13.6 g/dL
Ht [4]: 40%
Lym [4]: 78.6%
MCHC [4]: 33.9%
MCV [4]: 61.9 fL
Mono [4]: 2.4%
PT [4]: 14.3 s
Plat [4]: 118.4 x10_4/uL
RBC [4]: 646.4 x10_4/ul
Ret [4]: 7.1%
WBC [4]: 94.4 x10_2/uL
KIDNEY_L [4]: 1 g
KIDNEY_R [4]: 1 g
KIDNEY_TOTAL [4]: 1.9 g
LIVER [4]: 8.6 g
ALP [4]: 1604.8 IU/L
ALT [4]: 29 IU/L
AST [4]: 66.2 IU/L
BUN [4]: 10 mg/dL
CRE [4]: 0.2 mg/dL
DBIL [4]: 0.02 mg/dL
GLC [4]: 175.4 mg/dL
K [4]: 4.2 meq/L
LDH [4]: 102.4 IU/L
Na [4]: 142.4 meq/L
PL [4]: 126.6 mg/dL
RALB [4]: 2.5 g/dL
TBIL [4]: 0.042 mg/dL
TC [4]: 66.8 mg/dL
TG [4]: 52.4 mg/dL
TP [4]: 5.4 g/dL
gamma-GTP [4]: 1 IU/L
TERMINAL_BW [5]: 211 g
APTT [5]: 19.4 s
Bas [5]: 0.2%
Eos [5]: 1%
Fbg [5]: 266.2 mg/dL
Hb [5]: 13.1 g/dL
Ht [5]: 38.8%
Lym [5]: 77.6%
MCHC [5]: 33.6%
MCV [5]: 61.9 fL
Mono [5]: 3.4%
PT [5]: 14.1 s
Plat [5]: 118.3 x10_4/uL
RBC [5]: 626.4 x10_4/ul
Ret [5]: 8.3%
WBC [5]: 94.8 x10_2/uL
KIDNEY_L [5]: 0.9 g
KIDNEY_R [5]: 0.9 g
KIDNEY_TOTAL [5]: 1.8 g
LIVER [5]: 8.7 g
ALP [5]: 1674 IU/L
ALT [5]: 37.8 IU/L
AST [5]: 76 IU/L
BUN [5]: 10.2 mg/dL
CRE [5]: 0.2 mg/dL
DBIL [5]: 0.012 mg/dL
GLC [5]: 185.6 mg/dL
K [5]: 3.9 meq/L
LDH [5]: 78.4 IU/L
Na [5]: 141.4 meq/L
PL [5]: 137.8 mg/dL
RALB [5]: 2.5 g/dL
TBIL [5]: 0.058 mg/dL
TC [5]: 72 mg/dL
TG [5]: 41.8 mg/dL
TP [5]: 5.4 g/dL
gamma-GTP [5]: 1.2 IU/L
TERMINAL_BW [6]: 208.6 g
APTT [6]: 16.1 s
Bas [6]: 0.2%
Eos [6]: 0.8%
Fbg [6]: 289 mg/dL
Hb [6]: 13.1 g/dL
Ht [6]: 39.2%
Lym [6]: 79.2%
MCHC [6]: 33.4%
MCV [6]: 61.4 fL
Mono [6]: 2.4%
PT [6]: 14.3 s
RBC [6]: 637.2 x10_4/ul
Ret [6]: 7.9%
WBC [6]: 80.1 x10_2/uL
KIDNEY_L [6]: 1 g
KIDNEY_R [6]: 0.9 g
KIDNEY_TOTAL [6]: 1.9 g
LIVER [6]: 8.5 g
ALP [6]: 1539.4 IU/L
ALT [6]: 32 IU/L
AST [6]: 71.8 IU/L
BUN [6]: 8.6 mg/dL
CRE [6]: 0.2 mg/dL
DBIL [6]: 0.016 mg/dL
GLC [6]: 186.4 mg/dL
K [6]: 3.8 meq/L
LDH [6]: 94.8 IU/L
Na [6]: 142.2 meq/L
PL [6]: 139.6 mg/dL
RALB [6]: 2.5 g/dL
TBIL [6]: 0.058 mg/dL
TC [6]: 74.2 mg/dL
TG [6]: 26 mg/dL
TP [6]: 5.4 g/dL
gamma-GTP [6]: 1.4 IU/L
TERMINAL_BW [7]: 209.1 g
APTT [7]: 15.5 s
Bas [7]: 0.4%
Eos [7]: 1%
Fbg [7]: 295.6 mg/dL
Hb [7]: 12.9 g/dL
Ht [7]: 38.7%
Lym [7]: 77.6%
MCHC [7]: 33.4%
MCV [7]: 61.4 fL
Mono [7]: 1.6%
PT [7]: 14 s
Plat [7]: 122 x10_4/uL
RBC [7]: 631.4 x10_4/ul
Ret [7]: 8%
WBC [7]: 93 x10_2/uL
KIDNEY_L [7]: 0.9 g
KIDNEY_R [7]: 0.9 g
KIDNEY_TOTAL [7]: 1.8 g
LIVER [7]: 7.6 g
ALP [7]: 1420.6 IU/L
ALT [7]: 31.6 IU/L
AST [7]: 74.6 IU/L
BUN [7]: 7.8 mg/dL
CRE [7]: 0.2 mg/dL
DBIL [7]: 0.016 mg/dL
GLC [7]: 182.2 mg/dL
K [7]: 3.9 meq/L
LDH [7]: 83.2 IU/L
Na [7]: 141.8 meq/L
PL [7]: 124 mg/dL
RALB [7]: 2.6 g/dL
TBIL [7]: 0.062 mg/dL
TC [7]: 66 mg/dL
TG [7]: 23.2 mg/dL
TP [7]: 5.5 g/dL
gamma-GTP [7]: 1.8 IU/L
TERMINAL_BW [8]: 203.9 g
APTT [8]: 17 s
Bas [8]: 0%
Eos [8]: 1%
Fbg [8]: 279.2 mg/dL
Hb [8]: 13.8 g/dL
Ht [8]: 40.9%
Lym [8]: 75.4%
MCHC [8]: 33.7%
MCV [8]: 62.5 fL
Mono [8]: 2.2%
PT [8]: 14.3 s
Plat [8]: 121.4 x10_4/uL
RBC [8]: 654.4 x10_4/ul
Ret [8]: 7.7%
WBC [8]: 89.2 x10_2/uL
KIDNEY_L [8]: 1 g
KIDNEY_R [8]: 1 g
KIDNEY_TOTAL [8]: 1.9 g
LIVER [8]: 8 g
ALP [8]: 1411 IU/L
ALT [8]: 25.2 IU/L
AST [8]: 66 IU/L
BUN [8]: 9.8 mg/dL
CRE [8]: 0.2 mg/dL
DBIL [8]: 0.014 mg/dL
GLC [8]: 174.8 mg/dL
K [8]: 4.3 meq/L
LDH [8]: 77 IU/L
Na [8]: 141.8 meq/L
PL [8]: 124.8 mg/dL
RALB [8]: 2.6 g/dL
TBIL [8]: 0.052 mg/dL
TC [8]: 67.6 mg/dL
TG [8]: 38 mg/dL
TP [8]: 5.7 g/dL
gamma-GTP [8]: 1.2 IU/L
